{"source": "patent US3994925A", "about": "“Salt of the silymarin group with aminopolyhydroxy alcohols” (Dr. Madaus & Co., priority 1973, dated 1976)", "tested_on": "proseodymium nitrate liver damage", "settings": "serum, 72 hours after 14 mg/kg praseodymnitrate i.v.; SMG1 140.5 mg/kg i.v. three days, MG1 40.5 mg/kg", "protocol": "The liver-protectiveeffect of the SMG1 was tested on white rats, in that experimentally produced liver damage was antagonized by SMG1 treatment. The rats were injected with the SMG1- or MG1-dosages in 5 ml 0.9% NaCl solution, to which 4% of PVP (M.W. about 10,000) was added per kg of body weight. A dosage of 140.5 mg/kg SMG1 corresponds to 100 mg Silymarin and 40.5 mg 1-methylamino-glucose. When the test animals received 140.5 mg/kg SMG1, the control animals were treated with the equivalent dosage of 1-methylamino glucose, i.e. 40.5 mg/kg.\nIn another series of tests, antagonization of proseodymium nitrate liver damage by SMG1, measured by the reaction of the serum enzyme glutamate-oxalacetate-transaminase (GOT), glutamate-pyruvate-transaminase (GPT), sorbital-dehydrogenase (SDH) and alkaline phosphatases (AP), was employed as a measure of efficacy of the instant materials. […] The test animals, male Wistar rats weighing approximately 200 g, were treated for three days with 140.5 mg/kg SMG1 i.v. On the first testing day, all rats were damaged i.v. with 14 mg/kg praseodymnitrate one hour after the SMG1- or MG1- injection."}
{"substance": "1-methylamino glucose [1-methylamino-glucose]", "values": [{"measurement": "AP (alkaline phosphatase)", "value": 168.0, "unit": "mU/ml"}, {"measurement": "GOT", "value": 360.6, "unit": "mU/ml"}, {"measurement": "GPT", "value": 118.4, "unit": "mU/ml"}, {"measurement": "SDH", "value": 32.0, "unit": "mU/ml"}]}
